In ChEMBL document CHEMBL1138016, “Azaadamantane benzamide 5-HT4 agonists: gastrointestinal prokinetic SC-54750” (Bioorg Med Chem Lett, 2004):

How the values were obtained:
[1] = Concentration required for inhibition of Dopamine receptor D1 using [3H]SCH-23,390 as the radioligand
[2] = Concentration required for inhibition of Dopamine receptor D2 using [3H]spiperone as the radioligand
[3] = biological target: 5-hydroxytryptamine receptor 4 (Rattus norvegicus) (UniProt Q62758); assay: Effective concentration required towards 5-hydroxytryptamine 4 receptor in rat tunica muscularis mucosae
[4] = biological target: T1, Adrenergic receptor alpha-2 (Homo sapiens, UniProt P08913+P18825+P18089); assay: Concentration required for inhibition of alpha-2 adrenergic receptor; type: protein assay
T1 sequence (P08913 whole entry): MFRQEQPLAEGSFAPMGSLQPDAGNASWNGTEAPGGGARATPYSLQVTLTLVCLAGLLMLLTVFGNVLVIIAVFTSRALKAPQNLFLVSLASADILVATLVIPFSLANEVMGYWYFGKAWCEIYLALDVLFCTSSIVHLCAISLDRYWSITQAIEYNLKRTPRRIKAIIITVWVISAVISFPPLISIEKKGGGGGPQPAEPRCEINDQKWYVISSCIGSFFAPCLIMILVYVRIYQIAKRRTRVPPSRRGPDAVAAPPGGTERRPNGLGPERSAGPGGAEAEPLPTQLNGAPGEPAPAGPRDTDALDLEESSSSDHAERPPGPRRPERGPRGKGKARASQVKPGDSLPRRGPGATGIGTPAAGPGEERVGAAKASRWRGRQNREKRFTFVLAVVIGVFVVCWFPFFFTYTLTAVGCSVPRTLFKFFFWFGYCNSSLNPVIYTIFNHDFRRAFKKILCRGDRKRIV
T1 sequence (P18825 whole entry): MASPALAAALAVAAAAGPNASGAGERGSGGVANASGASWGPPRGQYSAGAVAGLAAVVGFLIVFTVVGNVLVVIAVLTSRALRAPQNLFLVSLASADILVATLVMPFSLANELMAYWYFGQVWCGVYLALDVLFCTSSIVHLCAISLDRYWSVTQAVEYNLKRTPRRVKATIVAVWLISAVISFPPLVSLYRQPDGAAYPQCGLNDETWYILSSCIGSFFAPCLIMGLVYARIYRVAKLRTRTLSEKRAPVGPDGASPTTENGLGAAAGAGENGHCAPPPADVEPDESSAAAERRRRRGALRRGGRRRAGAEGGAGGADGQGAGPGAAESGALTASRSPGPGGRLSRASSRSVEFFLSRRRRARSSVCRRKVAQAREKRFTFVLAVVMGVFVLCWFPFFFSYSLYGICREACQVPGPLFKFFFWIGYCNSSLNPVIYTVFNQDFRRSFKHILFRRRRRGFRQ
T1 sequence (P18089 whole entry): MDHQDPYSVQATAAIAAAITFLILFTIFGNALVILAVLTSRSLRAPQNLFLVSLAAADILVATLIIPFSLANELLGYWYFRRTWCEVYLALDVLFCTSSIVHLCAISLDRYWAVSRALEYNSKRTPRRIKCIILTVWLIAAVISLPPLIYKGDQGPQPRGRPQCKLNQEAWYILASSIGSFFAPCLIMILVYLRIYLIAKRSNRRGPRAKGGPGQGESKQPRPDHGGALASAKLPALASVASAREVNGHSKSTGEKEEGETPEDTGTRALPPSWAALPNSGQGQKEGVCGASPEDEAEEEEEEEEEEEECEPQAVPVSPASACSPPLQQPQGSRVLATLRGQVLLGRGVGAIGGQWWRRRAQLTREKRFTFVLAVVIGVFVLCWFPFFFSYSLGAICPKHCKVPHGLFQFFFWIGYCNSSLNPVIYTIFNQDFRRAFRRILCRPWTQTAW

[5] = Concentration required for inhibition of 5-hydroxytryptamine 1 receptor using [3H]-5-HT as the radioligand
[6] = biological target: 5-hydroxytryptamine receptor 4 (Cavia porcellus); assay: Binding affinity for 5-hydroxytryptamine 4 receptor in guinea pig was determined by guinea pig striatum binding assay
[7] = tested on: Canis familiaris; assay: Tested for inhibition of cisplatin-induced emesis in dog after i.g. administration; details: Canis lupus familiaris, po; read-out: ID50 (the source's name)
[8] = tested on: Oryctolagus cuniculus; assay: Effective concentration required for restoring normal motility after i.v. administration; type: functional, organism-based, Canis lupus familiaris
[9] = tested on: Oryctolagus cuniculus; assay: Effective dose required for restoring normal motility after i.v. administration; type: functional, Canis lupus familiaris; details: iv

5-hydroxytryptamine receptor 4 (Rattus norvegicus), sequence (Q62758 whole entry, looked up): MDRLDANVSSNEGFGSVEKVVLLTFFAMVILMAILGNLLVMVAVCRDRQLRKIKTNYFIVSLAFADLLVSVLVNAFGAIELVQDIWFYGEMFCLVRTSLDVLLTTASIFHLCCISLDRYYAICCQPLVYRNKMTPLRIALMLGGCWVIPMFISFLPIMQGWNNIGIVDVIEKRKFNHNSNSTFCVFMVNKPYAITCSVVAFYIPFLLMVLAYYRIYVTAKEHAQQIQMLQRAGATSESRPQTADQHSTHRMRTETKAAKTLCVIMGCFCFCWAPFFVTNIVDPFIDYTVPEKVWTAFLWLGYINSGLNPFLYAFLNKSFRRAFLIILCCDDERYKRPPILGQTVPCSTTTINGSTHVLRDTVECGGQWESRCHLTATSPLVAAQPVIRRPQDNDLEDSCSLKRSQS

IC50 [1] | IC50 [2] | EC50 [3] | IC50 [4] | IC50 [5] | Ki [6] | SMILES | ED50 [7] | EC50 [8] | ED50 [9]
> 10 µM | > 10 µM | 0.538 µM | 6.4 µM | > 10 µM | > 0.5 µM | COc1cc(N)c(Cl)cc1C(=O)NC1C2CC3CC1CN(C3)C2 (stereo in doubt; 9a) |  |  | 
 |  | 0.262 µM | > 10 µM |  | 0.057 µM | COc1cc(N)c(Cl)cc1C(=O)NC1C2CC3CC1CN(C3)C2 (stereo in doubt; 9b) |  |  | 
> 10 µM | > 10 µM |  | > 10 µM | > 10 µM |  | COc1cc(N)c(Cl)cc1C(=O)NCC1C2CC3CC1CN(C3)C2 (stereo in doubt; 9c) | 0.3 mg/kg | 0.03 mg/kg | 0.62 mg/kg
